Reference: PMC6173696, “Structural properties of a haemophore facilitate targeted elimination of the pathogen Porphyromonas gingivalis” (Nature Communications, 2018)

Assays:
P. gingivalis W83 = assay: Growth of starved W83 with titration of dipyridyl; assay type: cell-based, Porphyromonas gingivalis
Excerpt: This manuscript further describes HusA protein. Although very sophisticated methods were used and interesting results were gained, this study requires more work to be convincing. The conclusions drawn (mainly regarding the possibility that porphyrin-metronidazole conjugate could be used to treat P. gingivalis infection) are very strong but not supported enough by the data presented.
- How is this possible that P. gingivalis grows in the culture medium lacking iron (dipyridyl added) and supplemented with porphyrins without metal inside the porphyrin ring (Fig 1, panel A)? What serves as an iron source allowing P. gingivalis to grow? Were the bacteria starved before these experiments? Please explain this more carefully.
Response: We agree with the reviewer that P. gingivalis requires both iron and porphyrin to survive. Iron is naturally present in the complex medium, enriched tryptic soy broth (eTSB), used in this study. The iron concentration of TSB medium has been previously determined at 0.74 µg/mL by atomic absorption spectrophotometry (de Oliverira Moreira L., et al., 2003 AEM) which requires approximately 500 µM dipyridyl to chelate all available iron in the medium (Scharfman AH 1996 I&I). The dipyridyl used in this study is 100 µM and the remaining iron provided by the TSB medium is sufficient to support P. gingivalis growth. […]

[1] = system: P. gingivalis wild-type W83; assay: Checkerboard / broth micro-dilution assay (MIC, MBC), wild-type W83; assay type: cell-based, Porphyromonas gingivalis; conditions: Porphyromonas gingivalis; planktonic W83, 24 h, anaerobic; read-out: minimal inhibitory concentration
Excerpt: Fig. 5 A prototype DPIX-conjugated antibiotic binds HusA and inhibits P. gingivalis. a The chemical structure of the deuteroporphyrin-lysine-metronidazole adduct, P8. b NMR signal intensity changes (black) and ^1H^N CSPs (red/green) for HusA upon addition of P8 (measured from ^15N-HSQC spectra shown in Supplementary Figure 21). c In silico docking of P8 to the energy minimized structure of HusA (conformer set 1), with residues experiencing NMR signal loss (orange) or CSPs (red/green) mapped to the structure (colouring as described in Fig. 2d). d Scaled and corrected fluorescence at 335 nm during titration of 1 μM of HusA with increasing concentrations of P8, haemin or DPIX. e Comparison of P8 inhibitory effect towards P. gingivalis wild-type W83 and husA mutants using checkerboard analysis. Serial dilutions of antibiotics (horizontal axis) were applied to a 96-well plate with different P. gingivalis strains (vertical axis). Serial dilutions of DPIX were also supplemented into wild-type W83 group to evaluate the competitive effect against P8. Absorption at OD600 of each well was recorded after 24 h of incubation. The OD600 of each strain grown in the absence of antibiotics was defined as 100% growth, which was applied to normalise the reading collected from other wells. The normalised percentage of each well was plotted in the checkerboard. Metronidazole alone and in combination with PPIX or DPIX was applied as control. f Intracellular killing assay of P8 antibiotics. Gingival H413 epithelial cells were infected by P. gingivalis W83 and then treated with P8 at various concentrations. Recovered bacteria were determined by CFU count. Metronidazole and DMSO were used as control. Three independent experiments with triplicate assays were conducted. […]

HusA [2] = molecular target: T1, HusA (Porphyromonas gingivalis, UniProt Q7MSY3); assay: UV-visible absorption spectral analysis of ligand interaction with HusA; assay type: binding
T1 sequence (Q7MSY3 24-218): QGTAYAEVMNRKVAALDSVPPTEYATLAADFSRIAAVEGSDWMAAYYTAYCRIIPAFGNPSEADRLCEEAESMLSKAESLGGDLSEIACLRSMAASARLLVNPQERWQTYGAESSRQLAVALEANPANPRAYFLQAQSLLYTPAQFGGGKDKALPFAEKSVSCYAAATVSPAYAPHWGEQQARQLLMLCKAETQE
Protocol: All absorbance spectra were recorded at room temperature using 10-mm quartz cuvettes on a Shimadzu UV-1601 or Jasco V-630 spectrophotometer. Mixtures of HusA/mutant with porphyrins were prepared by dissolving porphyrin stocks in standard buffer to a final concentration of 5–20 μM with a 1–1.5 molar ratio of protein to porphyrin, as specified in the relevant figure legends. PPIX:HusA mixtures were prepared by incremental addition of 2–4 μM HusA with a 10–15 min wait after each addition of HusA.

HusA [3] = molecular target: T1, HusA; assay: Tryptophan fluorescence quenching assay, HusA wild-type; assay type: binding; conditions: HusA wild-type 1 µM, fit to 1:1 binding model; read-out: Kd
Protocol: The quenching of intrinsic tryptophan fluorescence of HusA upon porphyrin additions was measured using a Carey Eclipse Fluorescence Spectrophotometer (Agilent) set to a photo multiplier effect (PME) of 850. A 5-mm path length quartz cuvette was used and all spectra were acquired at room temperature. Excitation was set to 295 nm and emission was measured from 300 nm to 500 nm using excitation/emission slit widths of 5 nm. Binding assays were performed at a protein concentration of 1 μM HusA in standard buffer at a working volume of 0.5 mL. […] The fluorescence quenching of HusA by PPIX was investigated in a similar manner with the following difference: the fluorescence intensities of ten 1 μM HusA samples were measured each with increasing amounts of PPIX after a 2-h incubation period to allow equilibrium to be reached. See Supplementary Methods for correction for inner filter effect and curve fitting. […]
Correction of inner filter effect and curve fitting in tryptophan fluorescence quenching assays The concentration of NATA was chosen such that the raw fluorescence intensity was similar to the […] concentrations of HusA and mutants used. The same molarity titrants of porphyrin were titrated into NATA as were added into HusA in the control reactions. Fluorescence intensity was scaled with respect to the starting florescence and corrected for the inner filter effect. Fluorescence at 335 nm was used to fit binding curves.
The correction method is based on Fonin AV., et al.26, noting that a Cary Eclipse spectrofluorimeter […]
performed to measure the contribution to the decrease in fluorescence due to the inner filter effect and this effect was scaled to the starting fluorescence values as fractional changes. The measured fluorescence at each titration point for each of the porphyrin titrations into protein was then adjusted for this contribution. Fluorescence at 335 nm was used to fit binding curves. Association constant, Ka, was fitted using the following equation in Origin, assuming a single binding site. A dissociation constant, Kd, was calculated by taking the inverse of the Ka.
Xobs = XA×f A+XAB×f AB (1) where XA is the corrected fluorescence, fA=1-fAB, fAB=x/(Bt), x=(-b-sqrt(b2-4×c))/2, b=-(1/Ka+At+Bt), c=Bt×At, Bt=total concentration of protein, At=total concentration of ligand.
To aid comparison of the different titrations, the corrected fluorescence was scaled to the starting fluorescence in the absence of porphyrins (i.e. all fluorescence curves have a starting value of one

[4] = system: P. gingivalis wild-type W83; assay: Checkerboard analysis of metronidazole with PPIX or DPIX, iron-replete and -limited; assay type: cell-based, Porphyromonas gingivalis; conditions: iron replete or iron-limited conditions
Protocol: Supplementary Figure 24. Comparison of metronidazole inhibitory effect towards P. gingivalis wild-type W83 in the presence of PPIX or DPIX under iron-replete and -limited conditions by checkerboard analysis. Serial dilutions of antibiotics along the horizontal axis were applied to a 96-well plate with P. gingivalis W83. Two pre-determined concentrations of PPIX or DPIX were supplemented to evaluate the synergistic effect between metronidazole and porphyrins. Dipyridyl (at 100 µM) was also applied to explore the potential effect under iron-replete and iron-depleted conditions. Absorption at OD600 of each well was recorded after 24 h of incubation. The OD600 of each strain grown in the absence of antibiotics was defined as 100% growth which was applied to normalise the reading collected from other wells. The normalised percentage of each well was plotted […]
(1 picture or pasted object on this page, not shown here)

Structure (SMILES)	interaction with HusA by UV-visible absorption (HusA [2])	Kd (HusA [3])	further results
c1ccc(-c2ccccn2)nc1 [dipyridyl, 2,2’-dipyridyl]	–	–	dipyridyl concentration at which growth recovery after starvation was observed (P. gingivalis W83): up to 200 µM; dipyridyl concentration at which P. gingivalis failed to recover (P. gingivalis W83; W83 after starvation): ≥ 500 µM
Cc1ncc([N+](=O)[O-])n1CCO [Metronidazole, metronidazole]	–	–	MIC [1]: 5 to 10 µM
C=CC1=C(C)/C(=C/c2[nH]c(Cc3[nH]c(/C=C4\NC(=O)C(C)=C4C=C)c(C)c3CCC(=O)O)c(CCC(=O)O)c2C)NC1=O [bilirubin]	no interaction	–	–
CC1=Cc2cc3[n-]c(cc4[n-]c(cc5nc(cc1n2)C=C5C)c(C)c4CCC(=O)[O-])c(CCC(=O)[O-])c3C.[Fe+2].[H+].[H+] [Fe(III)DPIX, iron(III) deuteroporphyrin IX]	–	0.22 ± 0.05 µM	–
C=CC1=C(C)c2cc3[nH]c(cc4nc(cc5[nH]c(cc1n2)c(C)c5CCC(=O)O)C(CCC(=O)O)=C4C)c(C)c3C=C [PPIX, protoporphyrin-IX]	–	1.9 ± 0.6 µM	sensitisation of P. gingivalis cells towards metronidazole [4]: Neither PPIX nor DPIX sensitised
C=CC1=C(C)/C(=C/C2=NC(=C\c3[nH]c(/C=C4\NC(=O)C(C)=C4C=C)c(C)c3CCC(=O)O)/C(CCC(=O)O)=C2C)NC1=O [biliverdin]	no interaction	–	–
